The NIST ThermoML archive (doi:10.1016/j.jct.2015.02.022)
Structures can show the parent of a compound that is named as a salt.

Legend:
[1] = Liquid; for mass density / viscosity: 101.33 kPa; for mass density: Pycnometric method; for vapor or sublimation pressure: Closed cell (Static) method; for viscosity: Capillary tube (Ostwald / Ubbelohde) method
[2] = refractive index (Na D-line) (dimensionless); conditions: 293.15 K; 101.33 kPa; Liquid; Standard Abbe refractometry

CCOC(=O)C(F)(F)F [ethyl trifluoroacetate]
[1]
Conditions | mass density [kg/m3] | vapor or sublimation pressure [kPa] | viscosity [mPa·s]
278.08 K | 1218.9 | – | –
285.15 K | 1205.9 | – | –
289.23 K | 1197.6 | – | –
293.35 K | – | 17.93 | –
293.45 K | – | – | 0.4635
293.68 K | 1188.3 | – | –
296.02 K | – | – | 0.4506
298.3 K | – | 22.86 | –
298.63 K | – | – | 0.4356
298.84 K | 1179 | – | –
300.75 K | – | 25.36 | –
301.19 K | – | – | 0.4234
303.35 K | – | 28.45 | –
303.75 K | – | – | 0.4107
303.86 K | 1168 | – | –
305.85 K | – | 31.2 | –
306.3 K | – | – | 0.3986
307.89 K | 1160.9 | – | –
308.35 K | – | 34.13 | –
308.85 K | – | – | 0.3881
310.85 K | – | 38 | –
311.33 K | – | – | 0.3775
312.65 K | 1151.4 | – | –
313.35 K | – | 42.3 | –
313.93 K | – | – | 0.3674
315.85 K | – | 47.2 | –
316.43 K | – | – | 0.3581
317.43 K | 1142.2 | – | –
318.4 K | – | 52 | –
318.96 K | – | – | 0.3497
320.97 K | – | 57.2 | –
321.63 K | – | – | 0.3399
322.5 K | 1131.3 | – | –
323.45 K | – | 63.2 | –
324.15 K | – | – | 0.3314
326.15 K | – | 70.64 | –
326.69 K | – | – | 0.323
328.75 K | – | 77.9 | –
329.16 K | – | – | 0.3153
331.45 K | – | 86.5 | –
331.64 K | – | – | 0.3075
334.05 K | – | 94.15 | –
334.32 K | – | – | 0.3009
335.25 K | – | 99.92 | –
335.65 K | – | 101.33 | –

Conditions | refractive index
[2] | 1.3086

CO [methanol]
[1]
Conditions | vapor or sublimation pressure [kPa] | viscosity [mPa·s]
293.35 K | 13.54 | –
302.45 K | – | 0.513
303.35 K | 22.05 | –
310.85 K | 31.07 | –
313.5 K | – | 0.443
320.97 K | 49.45 | –
323.55 K | – | 0.386
331.45 K | 77.05 | –
333.85 K | – | 0.345
335.95 K | 95.83 | –
